{
  "source": "patent US6815446B1",
  "about": "“Selective antagonists of A2B adenosine receptors” (Vanderbilt University, priority 1999, dated 2004)",
  "key": {"rat A3": {"target": "T1, rat A3 (Rattus norvegicus, UniProt P28647)", "T1 construct": "expressed in transfected cells", "T1 sequence (P28647 1-320)": "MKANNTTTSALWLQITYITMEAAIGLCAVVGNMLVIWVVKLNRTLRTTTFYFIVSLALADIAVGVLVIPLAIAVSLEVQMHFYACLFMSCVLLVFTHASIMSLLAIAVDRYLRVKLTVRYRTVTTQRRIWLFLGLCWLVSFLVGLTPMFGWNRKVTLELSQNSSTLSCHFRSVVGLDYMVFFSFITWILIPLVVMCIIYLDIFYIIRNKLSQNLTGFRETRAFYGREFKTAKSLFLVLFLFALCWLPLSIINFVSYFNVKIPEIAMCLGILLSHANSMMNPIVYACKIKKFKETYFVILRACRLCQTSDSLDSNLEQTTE", "conditions": "rat (r); [125I]APNEA, CHO cells transfected with rat A3; read-out: Antagonist potency (K1 or KB) A3 Receptor; cited from earlier work"}, "human A1 [1]": {"target": "T2, human A1 (Homo sapiens, UniProt P30542)", "T2 construct": "expressed in transfected cells", "T2 sequence (P30542 1-326)": "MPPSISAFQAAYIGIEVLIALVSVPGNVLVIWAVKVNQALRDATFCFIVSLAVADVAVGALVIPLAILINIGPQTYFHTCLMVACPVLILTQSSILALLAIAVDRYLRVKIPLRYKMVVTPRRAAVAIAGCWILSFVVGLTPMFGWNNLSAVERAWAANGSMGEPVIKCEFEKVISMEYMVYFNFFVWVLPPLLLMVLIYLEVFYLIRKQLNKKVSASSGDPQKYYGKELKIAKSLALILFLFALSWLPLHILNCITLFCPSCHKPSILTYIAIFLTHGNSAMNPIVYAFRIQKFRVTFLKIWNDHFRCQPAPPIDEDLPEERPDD", "assay": "Displacement of [3H]DPCPX from membranes of CHO cells transfected with human A1", "assay_type": "binding", "conditions": "read-out: Antagonist potency (K1 or KB) A1 Receptor"}, "A2A Receptor [2]": {"target": "T3, A2A Receptor (Homo sapiens, UniProt P29274)", "T3 construct": "endogenous in cells; host or cells: HMC-1 cells", "T3 sequence (P29274 whole entry)": "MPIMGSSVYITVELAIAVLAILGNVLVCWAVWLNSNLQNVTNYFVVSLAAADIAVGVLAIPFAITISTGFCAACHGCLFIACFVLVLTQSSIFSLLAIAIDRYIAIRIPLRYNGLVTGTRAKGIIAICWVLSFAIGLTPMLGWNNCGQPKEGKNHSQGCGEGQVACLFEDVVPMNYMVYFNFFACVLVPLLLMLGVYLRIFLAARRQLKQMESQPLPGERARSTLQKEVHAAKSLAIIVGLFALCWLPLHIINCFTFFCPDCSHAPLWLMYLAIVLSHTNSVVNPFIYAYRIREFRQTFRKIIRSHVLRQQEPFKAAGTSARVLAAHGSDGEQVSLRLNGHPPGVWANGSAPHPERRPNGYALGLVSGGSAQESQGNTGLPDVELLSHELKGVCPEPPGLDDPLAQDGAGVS", "assay": "Inhibition of CGS 21680-stimulated cAMP in HMC-1 cells", "assay_type": "cell-based", "conditions": "human (h), read-out: Antagonist potency (K1 or KB) A2A Receptor"}, "human A3": {"target": "T4, human A3 (Homo sapiens, UniProt P0DMS8)", "T4 construct": "expressed in transfected cells", "T4 sequence (P0DMS8 1-318)": "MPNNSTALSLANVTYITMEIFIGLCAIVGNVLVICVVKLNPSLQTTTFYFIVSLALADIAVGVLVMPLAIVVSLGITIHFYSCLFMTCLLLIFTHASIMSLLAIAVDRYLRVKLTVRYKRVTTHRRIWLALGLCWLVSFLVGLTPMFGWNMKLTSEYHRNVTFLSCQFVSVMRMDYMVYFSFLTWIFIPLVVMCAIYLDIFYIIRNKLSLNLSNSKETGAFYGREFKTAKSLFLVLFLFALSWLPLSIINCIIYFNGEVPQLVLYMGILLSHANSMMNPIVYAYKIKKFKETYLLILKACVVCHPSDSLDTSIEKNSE", "assay": "Displacement of [3H]NECA from CHO cells transfected with human A3", "assay_type": "binding", "conditions": "read-out: Antagonist potency (K1 or KB) A3 Receptor"}, "A2B Receptor [3]": {"target": "T5, A2B Receptor (Homo sapiens, UniProt P29275)", "T5 sequence (P29275 1-332)": "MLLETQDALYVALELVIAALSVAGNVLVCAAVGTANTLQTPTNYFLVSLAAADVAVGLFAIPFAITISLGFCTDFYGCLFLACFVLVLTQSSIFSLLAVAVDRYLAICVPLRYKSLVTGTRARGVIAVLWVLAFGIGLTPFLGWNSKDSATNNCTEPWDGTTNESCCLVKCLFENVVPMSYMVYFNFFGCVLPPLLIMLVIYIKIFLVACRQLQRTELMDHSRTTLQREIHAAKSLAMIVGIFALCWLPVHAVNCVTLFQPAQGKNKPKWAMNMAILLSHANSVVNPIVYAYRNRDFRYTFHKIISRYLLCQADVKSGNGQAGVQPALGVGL", "assay": "Inhibition of NECA-stimulated cAMP in HEL (human erythroleukemia) cells, Schild analysis", "assay_type": "cell-based", "design": "endogenous in cells; host or cells: human erythroleukemia (HEL) cells", "conditions": "for Schild analysis, type of antagonism at A2B receptors: NECA cAMP dose-response curves in human erythroleukemia cells with increasing antagonist concentrations, FIG. 1; for Kb: human (h), NECA-stimulated cAMP in HEL cells, read-out: Antagonist potency (K1 or KB) A2B Receptor", "source_text": "A Schild analysis derived from dose-response curves for accumulation of cAMP produced by NECA in human erythroleukemia cells in the absence and in the presence of increasing concentrations of the antagonists. […] The intercept at the x-axis is an estimate of the Ki of the antagonists."}, "A2B Receptor [4]": {"target": "T5, A2B Receptor", "conditions": "background statement; cited from earlier work"}, "A1 Receptor": {"target": "T6, A1 Receptor (Rattus norvegicus, UniProt P25099)", "T6 sequence (P25099 1-326)": "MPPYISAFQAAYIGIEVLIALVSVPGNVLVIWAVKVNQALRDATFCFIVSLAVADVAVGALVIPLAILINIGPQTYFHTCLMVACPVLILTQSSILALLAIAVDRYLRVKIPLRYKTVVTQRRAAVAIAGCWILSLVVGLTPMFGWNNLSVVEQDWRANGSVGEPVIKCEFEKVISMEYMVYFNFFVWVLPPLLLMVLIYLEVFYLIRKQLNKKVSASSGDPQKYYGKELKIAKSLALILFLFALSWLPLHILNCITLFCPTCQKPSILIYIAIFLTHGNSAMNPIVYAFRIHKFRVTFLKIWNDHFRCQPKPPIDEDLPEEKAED", "conditions": "read-out: Antagonist potency (K1 or KB) A1 Receptor; rat (r); [3H]PIA, rat brain membranes; cited from earlier work"}, "A2A Receptor [5]": {"target": "A2A Receptor (Rattus norvegicus, UniProt P30543)", "sequence (P30543 whole entry)": "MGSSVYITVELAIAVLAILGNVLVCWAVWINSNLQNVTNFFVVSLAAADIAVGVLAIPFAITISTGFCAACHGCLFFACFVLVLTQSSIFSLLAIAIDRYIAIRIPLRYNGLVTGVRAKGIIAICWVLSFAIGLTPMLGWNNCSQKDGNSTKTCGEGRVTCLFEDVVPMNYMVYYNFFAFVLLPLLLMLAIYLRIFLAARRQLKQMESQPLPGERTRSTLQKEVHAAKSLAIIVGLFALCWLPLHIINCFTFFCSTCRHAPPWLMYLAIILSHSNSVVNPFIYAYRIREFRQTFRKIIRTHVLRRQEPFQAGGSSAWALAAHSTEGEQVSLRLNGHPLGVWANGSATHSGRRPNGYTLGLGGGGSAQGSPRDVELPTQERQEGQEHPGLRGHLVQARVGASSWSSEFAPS", "conditions": "read-out: Antagonist potency (K1 or KB) A2A Receptor; rat (r); CGS 21680 radioligand, rat striatal membranes; cited from earlier work"}, "human A1 [6]": {"target": "T2, human A1", "conditions": "human (h); [3H]DPCPX, HEK-293 cells transfected with human A1; read-out: Antagonist potency (K1 or KB) A1 Receptor; cited from earlier work"}},
  "note": "Read-outs that look alike come from different tables or passages of the source.",
  "data": [
    {"smiles": "Cn1c(=O)c2[nH]cnc2n(C)c1=O", "note": "[Theophylline]", "values": [
      {"measurement": "Kb", "setting": "rat A3", "value": "> 100", "unit": "µM"}
    ]},
    {"smiles": "CC(C)Cn1c(=O)[nH]c(=O)c2[nH]c(N3CCCC3)nc21", "note": "[Formula (I)]", "values": [
      {"measurement": "Kb", "setting": "human A1 [1]", "value": 31, "unit": "µM"},
      {"measurement": "Kb", "setting": "A2A Receptor [2]", "value": 20, "unit": "µM"},
      {"measurement": "Kb", "setting": "human A3", "value": 53, "unit": "µM"},
      {"measurement": "Schild analysis, type of antagonism at A2B receptors", "setting": "A2B Receptor [3]", "value": "competitive antagonism"},
      {"measurement": "Potency compared with enprofylline", "setting": "A2B Receptor [3]; comparison from the potency table", "value": "much higher than that of enprofylline"},
      {"measurement": "Kb", "setting": "A2B Receptor [3]", "value": 0.525, "unit": "µM"}
    ]},
    {"smiles": "CCCn1c(=O)c2[nH]c(-c3ccc(S(=O)(=O)O)cc3)nc2n(CCC)c1=O", "note": "[DPSPX, 1,3-dipropyl-8-p-sulfophenylxanthine]", "values": [
      {"measurement": "Kb", "setting": "rat A3", "value": "> 100", "unit": "µM"},
      {"measurement": "Affinity of xanthine antagonists at A2B receptors", "setting": "A2B Receptor [4]", "value": "mid to high nM range"},
      {"measurement": "Kb", "setting": "A1 Receptor", "value": 0.14, "unit": "µM"},
      {"measurement": "Kb", "setting": "A2A Receptor [5]", "value": 0.79, "unit": "µM"},
      {"measurement": "Schild analysis, type of antagonism at A2B receptors", "setting": "A2B Receptor [3]", "value": "competitive antagonism"},
      {"measurement": "Kb", "setting": "A2B Receptor [3]", "value": 0.14, "unit": "µM"}
    ]},
    {"smiles": "CCNC(=O)[C@H]1O[C@@H](n2cnc3c(NCc4ccccc4)ncnc32)[C@@H](O)C1O", "note": "(stereo partly shown) [N^6-benzyl NECA]", "values": [
      {"measurement": "Agonist activity or affinity at A2B receptors", "setting": "A2B Receptor [4]", "value": "very low affinity"}
    ]},
    {"smiles": "CCCn1c(=O)[nH]c(=O)c2nc[nH]c21", "note": "[Enprofylline]", "values": [
      {"measurement": "Kb", "setting": "human A1 [6]", "value": 156, "unit": "µM"},
      {"measurement": "Schild analysis, type of antagonism at A2B receptors", "setting": "A2B Receptor [3]", "value": "competitive antagonism"}
    ]}
  ]
}
